One compound from PMC10926604, “Discovery of a novel small molecule as CD47/SIRPα and PD-1/PD-L1 dual inhibitor for cancer immunotherapy” (Cell Communication and Signaling : CCS, 2024) can be followed below.

For orientation: Kd means the constant that tells how readily two partners part at equilibrium.

The target of one assay is T1, murine SIRPα (mSIRPα) (Mus musculus, UniProt P97797).
T1 construct: SIPRα-IgV-His (human: SIA-H5225, mouse: SIA-M52H4, ACRO Biosystems); His; purchased ACRO Biosystems SIA-M52H4
T1 sequence (P97797 32-137 limits assumed): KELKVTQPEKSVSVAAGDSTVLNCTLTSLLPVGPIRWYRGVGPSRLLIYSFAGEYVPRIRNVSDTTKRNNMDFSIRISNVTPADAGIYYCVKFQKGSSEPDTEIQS
The assay is described as follows: MST binding assay, murine SIRPα. As to conditions: SIRPα-IgV-His, read-out: dissociation constant (KD) for murine SIRPα. The protocol: SIPRα-IgV-His (human: SIA-H5225, mouse: SIA-M52H4, ACRO Biosystems) and PD-L1-IgV-His (human: 10,084-H08H, mouse: 50,010-M08H, Sino Biological) proteins were labeled with Red-NHS647 dye (NT-MO-L001, NanoTemper) for subsequent experiments. SMC18 (C385-0664, ChemDiv) was serially diluted using PBST (from 0.0191 μM to 200 μM) and mixed with the labeled proteins. The samples were then aspirated using standard capillaries and assayed by MST instrument (Monolith NT.115, NanoTemper), and the results were analyzed using the analytical software Monolith NT.115 system to calculate the dissociation constant (KD) values.

The next assay has as its target T2, murine CD47/SIRPα (Mus musculus, UniProt P97797).
T2 construct: purchased ACRO Biosystems SIA-M5258; host or cells: CHO-K1-mCD47 cells carry the partner (lentiviral transfection)
The assay is described as follows: Cell-based blocking assay, murine CD47/SIRPα. As to conditions: CHO-K1-mCD47 cells, SIRPα-Fc, flow cytometry; read-out: IC50 for blocking murine CD47/SIRPα interaction. The procedure: (§1) The CHO-K1 cell line with stable expression of CD47 and PD-1 was constructed previously by our group. SMC18 was serially diluted using PBS 7.2 (containing 1% DMSO) and incubated with 100 ng of SIRPα-Fc protein (human: SIA-H5251, mouse: SIA-M5258, ACRO Biosystems) and 50 ng of PD-L1-Fc protein (human: 10,084-H02H, mouse: 50,010-M02H, Sino Biological) on ice for 30 min. The mixture was then added to the corresponding CHO-K1-CD47 or CHO-K1-PD-1 cells and further incubated on ice for 30 min. Afterward, PE-conjugated anti-human IgG (Fc) antibody (A18272, eBioscience) was added. The mean fluorescence intensity (MFI) of the cells was detected using flow cytometry (BD FACSCalibur) and the blocking efficiency was calculated.

A further assay has as its target T3, human PD-1/PD-L1 (Homo sapiens, UniProt Q9NZQ7).
T3 construct: purchased Sino Biological 10,084-H02H; host or cells: CHO-K1-hPD-1 cells carry the partner (lentiviral transfection)
As to the kind of experiment: Cell-based blocking assay, human PD-1/PD-L1. As to conditions: CHO-K1-hPD-1 cells, PD-L1-Fc, flow cytometry; read-out: IC50 for blocking human PD-1/PD-L1 interaction. The protocol: as §1
For orientation: A flow cytometer gives signals particle by particle.

The test system of the next assay is MC38 cells. The assay is described as follows: MTT assay, MC38 cells. The conditions noted are these: 100 µM; 24 h, 48 h, 72 h. Type of assay: cell-based, mouse. The protocol: MC38 and B16-OVA cells were seeded into 96-well plates at a density of 3,000 cells per well, respectively and allowed to adhere overnight. SMC18 was added to the cells and incubated for 24 h, 48 h and 72 h, respectively. Cell viability was measured by adding MTT (3-(4, 5-dimethyl-2-thiazolyl)-2,5-diphenyl-2-H-tetrazolium bromide, 298–93-1, Sigma) solution and incubating for 4 h. The cells were then lysed by shaking with DMSO. The absorbance values at 490 nm were measured using a multi-mode microplate reader (Molecular Devices, SpectraMax iD5).
Fig S3. The Effect of SMC18 on Tumor Cell Proliferation in vitro. MC38 cells (3000 cells/well) and B16-OVA cells (3000 cells/well) were seeded in flat-bottomed 96-well plates and allowed to adhere overnight. Subsequently, the cells were starved for 8 hours in serum-free medium. SMC18 was diluted in complete culture medium and added to the wells, following which the cells were incubated for 24 h, 48 h, and 72 h. After the designated incubation periods, 20 μL of MTT solution was added to each well. Four hours later, the supernatant was aspirated, and 150 μL of DMSO was added to each well to dissolve the MTT formazan product. The plates were then shaken for 10 minutes, and absorbance was measured at 490 nm using a microplate reader.

In a further assay the test system is SIRPα. The assay is described as follows: Tyrosine phosphorylation assay of SIRPα, BMDM/MC38 co-culture. Type of assay: cell-based, mouse. As to conditions: 50 μM, BMDMs co-cultured with MC38 cells, 30 min, Western blotting. The protocol:
Murine bone marrow-derived macrophages were subjected to induction using murine GM-CSF for 7 days. Subsequently, the induced macrophages (2 × 10^6 cells/well) were co-cultured with MC38 cells (1 × 10^7 cells/well). The co-cultures were treated with PBS (negative control), SMC18 (50 μM), or anti-mouse CD47 (clone miap301, 20 μg/mL, positive control) and incubated at 37℃ for 30 min. Following this, cells were washed and lysed. Finally, cell lysates were collected for immunoprecipitation and Western blotting.
In brief, the protein samples were separated by SDS-PAGE using a 4% stacking gel and an 8 ~ 10% main gel and transferred to a polyvinylidene difluoride (PVDF) membrane. The membrane was blocked with 5% milk at room temperature for 1–2 h and then incubated with anti-SIRPα (dilution 1:1000, AB8120, Abcam), anti-PD-1 (dilution 1:200, ab52587, Abcam) or anti-Phosphotyrosine (dilution 1:1000, 05–321, Millipore) dissolved in primary antibody dilution buffer overnight at 4 °C. Then the membrane was washed and incubated with appropriate HRP-coupled goat anti-rabbit IgG (D110058, Sangon Biotech) and HRP-coupled goat anti-mouse IgG (D110087, Sangon Biotech) for 1–2 h at room temperature. Finally, the membranes were exposed using an enhanced chemiluminescence (ECL) detection kit (P1030, Applygen). Results were analyzed by ImageJ software (NIH, Bethesda, MD, United States).

T3 sequence (Q9NZQ7 19-239 limits assumed): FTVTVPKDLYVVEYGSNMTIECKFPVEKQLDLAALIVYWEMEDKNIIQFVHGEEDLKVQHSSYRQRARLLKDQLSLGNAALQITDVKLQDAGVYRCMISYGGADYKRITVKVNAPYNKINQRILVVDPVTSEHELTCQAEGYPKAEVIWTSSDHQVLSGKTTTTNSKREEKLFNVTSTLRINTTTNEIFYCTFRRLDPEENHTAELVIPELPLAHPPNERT
T2 sequence (P97797 32-373 limits assumed): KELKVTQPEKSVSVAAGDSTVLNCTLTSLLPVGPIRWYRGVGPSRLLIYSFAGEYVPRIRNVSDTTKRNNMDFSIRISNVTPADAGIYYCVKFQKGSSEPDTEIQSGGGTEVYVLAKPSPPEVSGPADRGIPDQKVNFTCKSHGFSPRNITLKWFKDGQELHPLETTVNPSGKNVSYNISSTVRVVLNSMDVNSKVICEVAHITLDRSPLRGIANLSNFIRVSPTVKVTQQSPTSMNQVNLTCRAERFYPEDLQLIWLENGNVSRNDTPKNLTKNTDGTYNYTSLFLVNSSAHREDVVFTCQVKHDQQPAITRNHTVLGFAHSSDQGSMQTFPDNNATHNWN

`Cc1cc(C)cc(NS(=O)(=O)c2ccc3[nH]cc(C(=O)NCCc4ccccc4)c(=O)c3c2)c1` [SMC18]: the Kd at murine SIRPα (mSIRPα) stood at 2.49 ± 1.9 µM. Further, the IC50 at murine CD47/SIRPα worked out at 58.9 ± 3.2 µM; at human PD-1/PD-L1 it was 19.7 ± 7 µM. Also, the “toxicity to MC38 cells (MTT)” value in the assay on MC38 cells is reported as “non-toxic”. In addition, in the assay with SIRPα, the “tyrosine phosphorylation levels of SIRPα” value is on record as “significantly suppressed”.
